# Source: patent EP4682173A1, “METHOD FOR PRODUCING RADIOLABELED ANTIBODY, RADIOLABELED ANTIBODY, AND RADIOACTIVE MEDICINE” (Kagoshima University, priority 2023, dated 2024)
# System: EGFR
# Experiment: Test Example 7: antigen binding activity by in vitro ARG (^89Zr-labeled Pmab)
# Design: species or system human
# Details: day after production
substance,measurement,value
Comparative Example 3: ^89Zr-panitumumab conjugate (monovalent) by the CCAP method,binding activity for EGFR,confirmed
